Measured values reported in patent US20170354655A1, “TLR INHIBITOR AND BRUTON'S TYROSINE KINASE INHIBITOR COMBINATIONS” (Pharmacyclics LLC, priority 2014, published 2017).

How the values were obtained:
TMD8 cells = experiment: Combined drug treatment with 5Z-7-Oxozeaenol and ibrutinib, CellTiter-Glo cell viability in TMD8 cell line; type: cell-based
Method: A 40 μL aliquot of CellTiter-Glo® reagent was added directly into each well of the 96-W plate. The plate was then shaken on a Shaker (Labsystem Wellmix) at speed 5 for 10-20 min at room temperature. Next, about 100 μL of the mixed medium was transferred to a white, non-transparent, flat bottom 96-W plate for assaying. A Flexstation 3 luminometer was used for detecting and measuring the luminescent signals. Measurements were taken at room temperature.
The luminescent measurements were subsequently processed and analyzed using CalcuSyn (CI) and Chalice Analyzer (synergy score). CalcuSyn performs the multiple drug dose-effect calculations using the Median Effect methods described by T-C Chou and P. Talalay in “Analysis of combined drug effects: a new look at a very old problem,” Trends Pharmacol. Sci. 4:450-454 (1983). In general, the resulting combination index (CI) obtained from the Chou-Talalay method defines quantitatively for additive effect (CI=1), synergism (CI<1), and antagonism (CI>1) in drug combinations. Chalice Analyzer utilizes the method described in Lehar et al. “Synergistic drug combinations improve therapeutic selectivity,” Nat. Biotechnol. 27(7):659-666 (2009). Synergy scores is higher than 1 indicate synergy between two compounds, with higher synergy scores indicating better synergy.
200 μl of TMD8 wt cells (1.0×10^4 cells) at 5.0×10^4 cells/ml was plated into each well of a 96-well plate. The cells were grown in RPMI-10P medium.
The TAK1 inhibitor used for this experiment was 5Z-7-oxozeaenol. […] The stock solution for chloroquine diphosphate was prepared at 20 mM concentration. The CellTiter-Glo® assay follow the protocols of Example 1.

[1] = test system: patients who have the activated B-cell like (ABC) subtype of DLBCL; conditions: cited from earlier work

COc1cc(O)c2c(c1)/C=C/C[C@H](O)[C@H](O)C(=O)/C=C\C[C@H](C)OC2=O [5Z-7-Oxozeaenol, 5Z-7-oxozeaenol]
luminescent signal (CellTiter-Glo) (TMD8 cells; 5Z-7-OXO 1 nM, ibrutinib 0 nM): 259932
luminescent signal (CellTiter-Glo) (TMD8 cells; 5Z-7-OXO 1 nM, ibrutinib 0.00026 nM): 249856
luminescent signal (CellTiter-Glo) (TMD8 cells; 5Z-7-OXO 1 nM, ibrutinib 0.00128 nM): 259290
luminescent signal (CellTiter-Glo) (TMD8 cells; 5Z-7-OXO 1 nM, ibrutinib 0.0064 nM): 236187
luminescent signal (CellTiter-Glo) (TMD8 cells; 5Z-7-OXO 1 nM, ibrutinib 0.032 nM): 249545
luminescent signal (CellTiter-Glo) (TMD8 cells; 5Z-7-OXO 1 nM, ibrutinib 0.16 nM): 181569
luminescent signal (CellTiter-Glo) (TMD8 cells; 5Z-7-OXO 1 nM, ibrutinib 0.8 nM): 127363
luminescent signal (CellTiter-Glo) (TMD8 cells; 5Z-7-OXO 1 nM, ibrutinib 4 nM): 98378.9
luminescent signal (CellTiter-Glo) (TMD8 cells; 5Z-7-OXO 1 nM, ibrutinib 20 nM): 98536.7
luminescent signal (CellTiter-Glo) (TMD8 cells; 5Z-7-OXO 1 nM, ibrutinib 100 nM): 78834.1
luminescent signal (CellTiter-Glo) (TMD8 cells; 5Z-7-OXO 10 nM, ibrutinib 0 nM): 277804
luminescent signal (CellTiter-Glo) (TMD8 cells; 5Z-7-OXO 10 nM, ibrutinib 0.00026 nM): 260616
luminescent signal (CellTiter-Glo) (TMD8 cells; 5Z-7-OXO 10 nM, ibrutinib 0.00128 nM): 241442
luminescent signal (CellTiter-Glo) (TMD8 cells; 5Z-7-OXO 10 nM, ibrutinib 0.0064 nM): 223023
luminescent signal (CellTiter-Glo) (TMD8 cells; 5Z-7-OXO 10 nM, ibrutinib 0.032 nM): 222768
luminescent signal (CellTiter-Glo) (TMD8 cells; 5Z-7-OXO 10 nM, ibrutinib 0.16 nM): 175048
luminescent signal (CellTiter-Glo) (TMD8 cells; 5Z-7-OXO 10 nM, ibrutinib 0.8 nM): 120925
luminescent signal (CellTiter-Glo) (TMD8 cells; 5Z-7-OXO 10 nM, ibrutinib 4 nM): 96219.6
luminescent signal (CellTiter-Glo) (TMD8 cells; 5Z-7-OXO 10 nM, ibrutinib 20 nM): 86196
luminescent signal (CellTiter-Glo) (TMD8 cells; 5Z-7-OXO 10 nM, ibrutinib 100 nM): 86511.6
luminescent signal (CellTiter-Glo) (TMD8 cells; 5Z-7-OXO 100 nM, ibrutinib 0 nM): 167090
luminescent signal (CellTiter-Glo) (TMD8 cells; 5Z-7-OXO 100 nM, ibrutinib 0.00026 nM): 168173
luminescent signal (CellTiter-Glo) (TMD8 cells; 5Z-7-OXO 100 nM, ibrutinib 0.00128 nM): 147600
luminescent signal (CellTiter-Glo) (TMD8 cells; 5Z-7-OXO 100 nM, ibrutinib 0.0064 nM): 151829
luminescent signal (CellTiter-Glo) (TMD8 cells; 5Z-7-OXO 100 nM, ibrutinib 0.032 nM): 130054
luminescent signal (CellTiter-Glo) (TMD8 cells; 5Z-7-OXO 100 nM, ibrutinib 0.16 nM): 98728.8
luminescent signal (CellTiter-Glo) (TMD8 cells; 5Z-7-OXO 100 nM, ibrutinib 0.8 nM): 54512.9
luminescent signal (CellTiter-Glo) (TMD8 cells; 5Z-7-OXO 100 nM, ibrutinib 4 nM): 42472
luminescent signal (CellTiter-Glo) (TMD8 cells; 5Z-7-OXO 100 nM, ibrutinib 20 nM): 40678.2
luminescent signal (CellTiter-Glo) (TMD8 cells; 5Z-7-OXO 100 nM, ibrutinib 100 nM): 34016
luminescent signal (CellTiter-Glo) (TMD8 cells; 5Z-7-OXO 1000 nM, ibrutinib 0 nM): 27259.1
luminescent signal (CellTiter-Glo) (TMD8 cells; 5Z-7-OXO 1000 nM, ibrutinib 0.00026 nM): 29868.2
luminescent signal (CellTiter-Glo) (TMD8 cells; 5Z-7-OXO 1000 nM, ibrutinib 0.00128 nM): 25315.4
luminescent signal (CellTiter-Glo) (TMD8 cells; 5Z-7-OXO 1000 nM, ibrutinib 0.0064 nM): 23976.6
luminescent signal (CellTiter-Glo) (TMD8 cells; 5Z-7-OXO 1000 nM, ibrutinib 0.032 nM): 20081.4
luminescent signal (CellTiter-Glo) (TMD8 cells; 5Z-7-OXO 1000 nM, ibrutinib 0.16 nM): 15015.6
luminescent signal (CellTiter-Glo) (TMD8 cells; 5Z-7-OXO 1000 nM, ibrutinib 0.8 nM): 12627.5
luminescent signal (CellTiter-Glo) (TMD8 cells; 5Z-7-OXO 1000 nM, ibrutinib 4 nM): 13032.5
luminescent signal (CellTiter-Glo) (TMD8 cells; 5Z-7-OXO 1000 nM, ibrutinib 20 nM): 13048.3
luminescent signal (CellTiter-Glo) (TMD8 cells; 5Z-7-OXO 1000 nM, ibrutinib 100 nM): 12982.5
luminescent signal (CellTiter-Glo) (TMD8 cells; 5Z-7-OXO 10000 nM, ibrutinib 0 nM): 4563.35
luminescent signal (CellTiter-Glo) (TMD8 cells; 5Z-7-OXO 10000 nM, ibrutinib 0.00026 nM): 4729.05
luminescent signal (CellTiter-Glo) (TMD8 cells; 5Z-7-OXO 10000 nM, ibrutinib 0.00128 nM): 4731.68
luminescent signal (CellTiter-Glo) (TMD8 cells; 5Z-7-OXO 10000 nM, ibrutinib 0.0064 nM): 4700.12
luminescent signal (CellTiter-Glo) (TMD8 cells; 5Z-7-OXO 10000 nM, ibrutinib 0.032 nM): 5299.8
luminescent signal (CellTiter-Glo) (TMD8 cells; 5Z-7-OXO 10000 nM, ibrutinib 0.16 nM): 5307.69
luminescent signal (CellTiter-Glo) (TMD8 cells; 5Z-7-OXO 10000 nM, ibrutinib 0.8 nM): 5441.83
luminescent signal (CellTiter-Glo) (TMD8 cells; 5Z-7-OXO 10000 nM, ibrutinib 4 nM): 5749.55
luminescent signal (CellTiter-Glo) (TMD8 cells; 5Z-7-OXO 10000 nM, ibrutinib 20 nM): 5957.34
luminescent signal (CellTiter-Glo) (TMD8 cells; 5Z-7-OXO 10000 nM, ibrutinib 100 nM): 6244.03
CI value for the 5Z-7-Oxozeaenol/ibrutinib combination (TMD8 cells; TMD8 cells): 0.17
synergy score for the 5Z-7-Oxozeaenol/ibrutinib combination (TMD8 cells; TMD8 cells): 4.63
synergy with ibrutinib (in words) (TMD8 cells; TMD8 cells): Synergy was observed

C=CC(=O)N1CCC[C@@H](n2nc(-c3ccc(Oc4ccccc4)cc3)c3c(N)ncnc32)C1 [ibrutinib, 1-((R)-3-(4-amino-3-(4-phenoxyphenyl)-1H-pyrazolo[3,4-d]pyrimidin-1-yl)piperidin-1-yl)prop-2-en-1-one]
luminescent signal (CellTiter-Glo) (TMD8 cells; 5Z-7-OXO 0 nM, ibrutinib 0.00026 nM): 268264
luminescent signal (CellTiter-Glo) (TMD8 cells; 5Z-7-OXO 0 nM, ibrutinib 0.00128 nM): 245879
luminescent signal (CellTiter-Glo) (TMD8 cells; 5Z-7-OXO 0 nM, ibrutinib 0.0064 nM): 240905
luminescent signal (CellTiter-Glo) (TMD8 cells; 5Z-7-OXO 0 nM, ibrutinib 0.032 nM): 249480
luminescent signal (CellTiter-Glo) (TMD8 cells; 5Z-7-OXO 0 nM, ibrutinib 0.16 nM): 190532
luminescent signal (CellTiter-Glo) (TMD8 cells; 5Z-7-OXO 0 nM, ibrutinib 0.8 nM): 126175
luminescent signal (CellTiter-Glo) (TMD8 cells; 5Z-7-OXO 0 nM, ibrutinib 4 nM): 96203.8
luminescent signal (CellTiter-Glo) (TMD8 cells; 5Z-7-OXO 0 nM, ibrutinib 20 nM): 90633.1
luminescent signal (CellTiter-Glo) (TMD8 cells; 5Z-7-OXO 0 nM, ibrutinib 100 nM): 94612.5
overall response rate [1]: 41%
overall survival [1]: 9.7 month
